In publication PMC8903780, “Therapeutic efficacy of an injectable formulation of purinostat mesylate in SU-DHL-6 tumour model” (Annals of Medicine, 2022):

Assays:
[1] = tested on: SU-DHL-6 cells; test: Annexin V-FITC/PI flow cytometry apoptosis assay; type: cell-based, human; conditions: 6 nM, 48 h
Method: The pro-apoptotic effect of the PM/HP-β-CD complex on SU-DHL-6 cells was investigated by flow cytometry. […] cells in good condition were collected and inoculated in the six-well plate with 2⋄10^5 cells per well. After being cultured for 24 h, cells were treated with PM and PM/HP-β-CD inclusion at 3 nM and 6 nM, using LBH589 at 6 nM as the positive control. The cells without drug treatment were the negative control. After 48 h incubation, the cells were then processed by annexin V-FITC/PI staining as the manufacturer’s instructions (KeyGen, 100 assays).

[2] = tested on: human double-hit lymphoma SU-DHL-6 xenograft tumours; type: in vivo; conditions: positive control groups, dose column – (RTX 10 mg/kg)
Method: To better determine the anti-tumour activity of the PM/HP-β-CD complex, the SU-DHL-6 cell line xenografts were established in immunodeficiency mice. The NOD/SCID mice were subcutaneously inoculated 7 × 10^6 cells per mouse. […] A mimic of HyperCVAD regimen, standard chemotherapy for B cell lymphoma ([22],[23]), especially aggressive subtypes, for example, double-hit lymphoma, was set as a positive control group for comparison (Table 2). Satellite groups were set up in the 10 mg/kg group, 20 mg/kg group, and the Hyper-CVAD group. Animals in the satellite groups were not sacrificed at the end of the treatment and underwent long-term treatment for further investigation. In the survival study, the animal mortality criterion was that the tumour volume reached 3000 mm^3 or the individual animal died, and the animal survival time was statistically analysed.
When the experimental period was over, the tumour was weighed and photographed, the main organs and tumours were collected, fixed, and embedded in paraffin for Histological and immunohistochemical analysis.

Cc1[nH]c2ccccc2c1CCNCc1ccc(/C=C/C(=O)NO)cc1 [LBH589, reference compound]
apoptotic SU-DHL-6 cells [1]: 60.1%
RTV ([2]; 14 days): 26.54
Tumour volume T/C% ([2]; 14 days): 101.83%
Tumour weight (g) X ± SD ([2]; 14 days): 3.81 ± 1.08 g
Tumour weight Inhibition (%) ([2]; 14 days): 22.72%
Tumour volume (mm^3) X ± SD Begin ([2]; begin of treatment): 152.7 ± 30.6 mm^3
Tumour volume (mm^3) X ± SD End ([2]; end of 14 days treatment): 4015.5 ± 1048.0 mm^3
Number End/begin ([2]; regimens Table 2, 14 days): 7/7
